One experiment has as its target human P2X3 receptor (Homo sapiens (Human), UniProt P56373). Description: Intracellular calcium measurement (FLIPR, Fluo-4) of antagonist activity at human P2X3 receptors. The format is cell-based. The note with it: read-out: hP2X3 IC50. The gist of the method: (§1)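 Antagonism quantified from peak calcium fluorescence (Fluo-4, FLIPR, 90 sec read) evoked by EC80 α,β-Me-ATP, after a 30 min, 37° C. compound pretreatment in 1% DMSO. Human P2X3- or P2X2/3-expressing cells used; triplicate means fitted for IC50, percent maximal inhibition and Hill coefficient.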

For another experiment, the target named is human P2X2/3 receptor (Homo sapiens (Human), UniProt P56373+Q9UBL9). The experiment can be described thus: Intracellular calcium measurement (FLIPR, Fluo-4) of antagonist activity at human P2X2/3 receptors. In kind it is cell-based. The method, boiled down: as §1
Sequence of human P2X2/3 receptor (P56373 whole entry): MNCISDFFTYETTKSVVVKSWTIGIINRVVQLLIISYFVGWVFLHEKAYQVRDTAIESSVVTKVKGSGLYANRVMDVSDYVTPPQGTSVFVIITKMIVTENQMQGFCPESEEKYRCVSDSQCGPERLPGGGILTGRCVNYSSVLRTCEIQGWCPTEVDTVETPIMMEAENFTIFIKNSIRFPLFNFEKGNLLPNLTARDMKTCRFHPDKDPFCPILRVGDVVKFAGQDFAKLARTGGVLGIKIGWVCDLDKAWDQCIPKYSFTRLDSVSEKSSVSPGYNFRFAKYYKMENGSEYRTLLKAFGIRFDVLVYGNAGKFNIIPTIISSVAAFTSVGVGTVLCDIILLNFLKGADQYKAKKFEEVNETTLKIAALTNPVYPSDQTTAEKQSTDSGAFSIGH
Sequence of human P2X2/3 receptor (Q9UBL9 whole entry): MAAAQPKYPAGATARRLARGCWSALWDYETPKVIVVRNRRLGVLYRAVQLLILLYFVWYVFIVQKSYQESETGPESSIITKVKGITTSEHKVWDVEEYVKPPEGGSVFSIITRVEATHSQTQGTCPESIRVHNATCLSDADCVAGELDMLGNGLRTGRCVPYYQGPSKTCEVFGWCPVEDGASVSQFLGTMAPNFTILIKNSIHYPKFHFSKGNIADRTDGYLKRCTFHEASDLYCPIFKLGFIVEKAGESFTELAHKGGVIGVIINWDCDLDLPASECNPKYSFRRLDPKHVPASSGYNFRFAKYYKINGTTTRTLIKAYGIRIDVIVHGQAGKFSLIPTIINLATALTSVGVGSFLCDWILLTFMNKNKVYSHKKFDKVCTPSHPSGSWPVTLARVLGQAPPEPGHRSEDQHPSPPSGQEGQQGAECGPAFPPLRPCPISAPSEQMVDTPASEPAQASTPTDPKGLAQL
On the technique in general: Calcium assays in cells follow changes in intracellular calcium, usually with a dye or a luminescent sensor.

Setting [1] is: human P2X3, FLIPR calcium assay, agonist α,β-Me-ATP.
[2] abbreviates: human P2X2/3, FLIPR calcium assay, agonist α,β-Me-ATP, read-out: hP2X2/3 IC50.

Where two headings read alike, the source gives them in different places. Some results are limits rather than exact numbers.

Sequence of human P2X3 receptor (P56373 whole entry): as the sequence (P56373 whole entry) above

Turning to `CCc1cnc(-c2cc(OC3CCOCC3)cc(C(=O)N[C@H](C)c3ccc(C)nn3)c2)s1` [Example 128, 3-(5-Ethyl-1,3-thiazol-2-yl)-N-[(1R)-1-(6-methylpyridazin-3-yl)ethyl]-5-(tetrahydro-2H-pyran-4-yloxy)benzamide], the IC50 on human P2X3 receptor (setting [1]) was found to be 10 nM; at human P2X2/3 receptor (setting [2]), 91 nM.
For `CCc1cnc(-c2cc(OC3CCOCC3)cc(C(=O)N[C@H](C)c3cnc(C(F)(F)F)nc3)c2)s1` [Example 129, 3-(5-Ethyl-1,3-thiazol-2-yl)-5-(tetrahydro-2H-pyran-4-yloxy)-N-{(1R)-1-[2-(trifluoromethyl)pyrimidin-5-yl]ethyl}benzamide] the same measures were 3 nM and 33 nM.
Consider `Cc1ncc([C@@H](C)NC(=O)c2cc(O[C@H]3CCOC3)cc(-c3ncc(C)s3)c2)cn1` [Example 130, N-[(1R)-1-(2-Methylpyrimidin-5-yl)ethyl]-3-(5-methyl-1,3-thiazol-2-yl)-5-[(3S)-tetrahydrofuran-3-yloxy]benzamide], for which the figures for the IC50 at human P2X3 receptor and on human P2X2/3 receptor (hP2X2/3 IC50 (nM)) were 74 nM and 1350 nM, respectively.
Turning to `Cc1ccc(Oc2cc(C(=O)N[C@H](C)c3cnc(C)cn3)cc(-c3ncc(C)s3)c2)cn1` [Example 131, N-[(1R)-1-(5-methylpyrazin-2-yl)ethyl]-3-[(6-methylpyridin-3-yl)oxy]-5-(5-methyl-1,3-thiazol-2-yl)benzamide], the IC50 at human P2X3 receptor (setting [1]) was found to be 134 nM; on human P2X2/3 receptor (setting [2]) it was 730 nM.
On to `Cc1cnc(-c2cc(O[C@H]3CCOC3)cc(C(=O)NC(C)c3ncc(F)cc3Cl)c2)s1` (stereo partly drawn) [Example 132, N-[1-(3-Chloro-5-fluoropyridin-2-yl)ethyl]-3-(5-methyl-1,3-thiazol-2-yl)-5-[(3S)-tetrahydrofuran-3-yloxy]benzamide], for which the figures for the IC50 on human P2X3 receptor (setting [1]) and on human P2X2/3 receptor (setting [2]) were 75 nM and 2050 nM, respectively.
In the case of `Cc1ccc(CNC(=O)c2cc(O[C@H]3CCOC3)cc(-c3ncc(C)s3)c2)nn1` [Example 133, N-[(6-Methylpyridazin-3-yl)methyl]-3-(5-methyl-1,3-thiazol-2-yl)-5-[(3S)-tetrahydrofuran-3-yloxy]benzamide], the values for the IC50 on human P2X3 receptor (setting [1]) and at human P2X2/3 receptor (setting [2]) were 177 nM and at least 10000 nM, respectively.
For `Cc1cnc(-c2cc(O[C@H]3CCOC3)cc(C(=O)NC(C)c3ncc(Cl)cc3F)c2)s1` (stereo partly drawn) [Example 134, N-[1-(5-Chloro-3-fluoropyridin-2-yl)ethyl]-3-(5-methyl-1,3-thiazol-2-yl)-5-[(3S)-tetrahydrofuran-3-yloxy]benzamide], the results for the IC50 on human P2X3 receptor (setting [1]) and on human P2X2/3 receptor (setting [2]) were 15 nM and 210 nM, respectively.
Consider `Cc1ccc([C@@H](C)NC(=O)c2cc(OC[C@H]3CCOC3)cc(-c3ncc(C4CCC4)s3)c2)nn1` [Example 135, 3-(5-Cyclobutyl-1,3-thiazol-2-yl)-N-[(1R)-1-(6-methylpyridazin-3-yl)ethyl]-5-[(3S)-tetrahydrofuran-3-ylmethoxy]benzamide], for which the IC50 on human P2X3 receptor (setting [1]) was determined as 35 nM; on human P2X2/3 receptor (setting [2]), 209 nM.
For the compound `COCCOc1cc(C(=O)N[C@H](C)c2cnc(C)nc2)cc(-c2ncc(C)s2)c1` [Example 136, 3-(2-Methoxyethoxy)-N-[(1R)-1-(2-methylpyrimidin-5-yl)ethyl]-5-(5-methyl-1,3-thiazol-2-yl)benzamide], the IC50 on human P2X3 receptor (setting [1]) is 196 nM; on human P2X2/3 receptor (setting [2]), 2780 nM.
With `Cc1cnc(-c2cc(OC3CCN(C(=O)OC(C)(C)C)CC3)cc(C(=O)N[C@H](C)c3cnc(C(F)(F)F)nc3)c2)s1` [Example 137, tert-Butyl 4-[3-(5-methyl-1,3-thiazol-2-yl)-5-({(1R)-1-[2-(trifluoromethyl)pyrimidin-5-yl]ethyl}carbamoyl)phenoxy]piperidine-1-carboxylate], the figures for the IC50 on human P2X3 receptor and on human P2X2/3 receptor (setting [2]) were 26 nM and 328 nM, respectively.
Consider `Cc1cnc(-c2cc(OC3CCN(C)CC3)cc(C(=O)N[C@H](C)c3cnc(C(F)(F)F)nc3)c2)s1` [Example 139, 3-[(1-Methylpiperidin-4-yl)oxy]-5-(5-methyl-1,3-thiazol-2-yl)-N-{(1R)-1-[2-(trifluoromethyl)pyrimidin-5-yl]ethyl}benzamide], for which the IC50 amounted to 8 nM on human P2X3 receptor (setting [1]) and 962 nM at human P2X2/3 receptor (setting [2]).
For `Cc1cnc(-c2cc(OC3CCN(C(C)C)CC3)cc(C(=O)N[C@H](C)c3cnc(C(F)(F)F)nc3)c2)s1` [Example 140, 3-(5-Methyl-1,3-thiazol-2-yl)-5-{[1-(propan-2-yl)piperidin-4-yl]oxy}-N-{(1R)-1-[2-(trifluoromethyl)pyrimidin-5-yl]ethyl}benzamide] the same measures were 33 nM and 1300 nM.
Regarding `Cc1cnc(-c2cc(O[C@@H]3CCN(C)C3)cc(C(=O)N[C@H](C)c3cnc(C(F)(F)F)nc3)c2)s1` [Example 141, 3-{[(3R)-1-Methylpyrrolidin-3-yl]oxy}-5-(5-methyl-1,3-thiazol-2-yl)-N-{(1R)-1-[2-(trifluoromethyl)pyrimidin-5-yl]ethyl}benzamide], the IC50 on human P2X3 receptor (setting [1]) was 43 nM; at human P2X2/3 receptor (setting [2]), 2200 nM.
For the compound `Cc1cnc(-c2cc(O[C@H]3CCN(C)C3)cc(C(=O)N[C@H](C)c3cnc(C(F)(F)F)nc3)c2)s1` [Example 142, 3-{[(3S)-1-Methylpyrrolidin-3-yl]oxy}-5-(5-methyl-1,3-thiazol-2-yl)-N-{(1R)-1-[2-(trifluoromethyl)pyrimidin-5-yl]ethyl}benzamide], the IC50 was 6 nM at human P2X3 receptor (setting [1]) and 222 nM at human P2X2/3 receptor (setting [2]).
With `Cc1cnc(-c2cc(OC3CN(C)C3)cc(C(=O)N[C@H](C)c3cnc(C(F)(F)F)nc3)c2)s1` [Example 143, 3-[(1-Methylazetidin-3-yl)oxy]-5-(5-methyl-1,3-thiazol-2-yl)-N-{(1R)-1-[2-(trifluoromethyl)pyrimidin-5-yl]ethyl}benzamide], the IC50 at human P2X3 receptor (setting [1]) turned out to be 84 nM; on human P2X2/3 receptor (setting [2]), 3050 nM.
For `C#CCOc1cc(C(=O)N[C@@H](C)c2cnc(C(F)(F)F)nc2)cc(-c2ncc(C)s2)c1` [Example 144, 3-(5-Methyl-1,3-thiazol-2-yl)-5-(prop-2-yn-1-yloxy)-N-{(1S)-1-[2-(trifluoromethyl)pyrimidin-5-yl]ethyl}benzamide] the same measures were 825 nM and at least 10000 nM.
As for `Cc1cnc(-c2cc(OC3CCOCC3)cc(C(=O)N[C@@H](C)c3cnc(C(F)(F)F)nc3)c2)s1` [Example 145, 3-(5-Methyl-1,3-thiazol-2-yl)-5-(tetrahydro-2H-pyran-4-yloxy)-N-{(1S)-1-[2-(trifluoromethyl)pyrimidin-5-yl]ethyl}benzamide], the figures for the IC50 on human P2X3 receptor (setting [1]) and on human P2X2/3 receptor (setting [2]) were 271 nM and 4460 nM, respectively.
For the compound `Cc1cnc(-c2cc(OC3CC4(C3)CN(C(=O)OC(C)(C)C)C4)cc(C(=O)N[C@H](C)c3cnc(C(F)(F)F)nc3)c2)s1` [Example 146, tert-butyl 6-[3-(5-methyl-1,3-thiazol-2-yl)-5-({(1R)-1-[2-(trifluoromethyl)pyrimidin-5-yl]ethyl}carbamoyl)phenoxy]-2-azaspiro[3.3]heptane-2-carboxylate], the figures for the IC50 at human P2X3 receptor (setting [1]) and on human P2X2/3 receptor (setting [2]) were 45 nM and 159 nM, respectively.
For `Cc1cnc(-c2cc(O[C@@H]3CCOC3)cc(C(=O)N[C@H](C)c3cnc(C(F)(F)F)cn3)c2)s1` [Example 147, 3-(5-methyl-1,3-thiazol-2-yl)-5-[(3R)-tetrahydrofuran-3-yloxy]-N-{(1R)-1-[5-(trifluoromethyl)pyrazin-2-yl]ethyl}benzamide] the same measures were 6 nM and 132 nM.
In the case of `Cc1cnc(-c2cc(OC3COC3)cc(C(=O)N[C@H](C)c3ccc(C(F)(F)F)nc3)c2)s1` [Example 148, 3-(5-methyl-1,3-thiazol-2-yl)-5-(oxetan-3-yloxy)-N-{(1R)-1-[6-(trifluoromethyl)pyridin-3-yl]ethyl}benzamide], the IC50 on human P2X3 receptor (setting [1]) amounted to 33 nM; at human P2X2/3 receptor (setting [2]), 794 nM.
On to `Cc1cnc(-c2cc(OC34CCN(CC3)CC4)cc(C(=O)N[C@H](C)c3cnc(C(F)(F)F)nc3)c2)s1` [Example 149], for which the IC50 stood at 21 nM at human P2X3 receptor (setting [1]) and 936 nM at human P2X2/3 receptor (setting [2]).
For `CC(=O)N1CCC(Oc2cc(C(=O)N[C@H](C)c3cnc(C(F)(F)F)nc3)cc(-c3ncc(C)s3)c2)CC1` [Example 150, 3-[(1-acetylpiperidin-4-yl)oxy]-5-(5-methyl-1,3-thiazol-2-yl)-N-{(1R)-1-[2-(trifluoromethyl)pyrimidin-5-yl]ethyl}benzamide] the same measures were 12 nM and 83 nM.
For `Cc1cnc(-c2cc(O[C@H]3CCOC3)cc(C(=O)N[C@H](C)c3cnc(C(F)F)nc3)c2)s1` [Example 151, N-{(1R)-1-[2-(difluoromethyl)pyrimidin-5-yl]ethyl}-3-(5-methyl-1,3-thiazol-2-yl)-5-[(3S)-tetrahydrofuran-3-yloxy]benzamide] the same measures were 31 nM and 333 nM.
For `Cc1cnc(-c2cc(OC3COC3)cc(C(=O)N[C@H](C)c3cnc(C(F)F)nc3)c2)s1` [Example 152, N-{(1R)-1-[2-(difluoromethyl)pyrimidin-5-yl]ethyl}-3-(5-methyl-1,3-thiazol-2-yl)-5-(oxetan-3-yloxy)benzamide] the same measures were 45 nM and 523 nM.
As to `Cc1cnc(-c2cc(O[C@@H]3CCOC3)cc(C(=O)N[C@H](C)c3cnc(C(F)F)nc3)c2)s1` [Example 153, N-{(1R)-1-[2-(difluoromethyl)pyrimidin-5-yl]ethyl}-3-(5-methyl-1,3-thiazol-2-yl)-5-[(3R)-tetrahydrofuran-3-yloxy]benzamide], the IC50 at human P2X3 receptor (setting [1]) was 27 nM; at human P2X2/3 receptor (setting [2]), 304 nM.
`Cc1cnc(-c2cc(O[C@@H]3CCOC3)cc(C(=O)N[C@H](C)c3ccc(C(F)(F)F)nc3)c2)s1` [Example 157, 3-(5-methyl-1,3-thiazol-2-yl)-5-[(3R)-tetrahydrofuran-3-yloxy]-N-{(1R)-1-[6-(trifluoromethyl)pyridin-3-yl]ethyl}benzamide]: the IC50 at human P2X3 receptor (setting [1]) is 17 nM; on human P2X2/3 receptor (setting [2]) it was 534 nM.

Source of the values: patent publication US10174016B2 (BAYER AKTIENGESELLSCHAFT, priority 2014, dated 2019).
